Source: US20250340939A1 (priority 2021, published 2025)
Entries after “also recorded” stand apart in the source; their conditions may differ. Where two headings read alike, the source gives them in different places.

Experiments:
Assay type in all cases: binding
16S rRNA (E. coli) = experiment: MST of Cy5 probes hybridized with total bacterial RNA; details: 100 μM Dox, red mode
Protocol: For bacterial RNA extraction, DH5α E. coli cells transfected with pcDNA3.1+ plasmid were grown overnight in LB medium containing 100 μg/ml ampicillin. The concentration of bacterial cells was determined according to OD at 600 nm, and ˜7·10^8 cells were taken for RNA extraction. 1 volume of bacterial culture was mixed with 2 volumes of RNAprotect® Bacteria Reagent (QIAGEN), vortexed for 5 seconds and incubated for 5 minutes at room temperature. The sample was then centrifuged for 10 minutes at 5,000×g at room temperature. After discarding supernatant, the pellet was resuspended in 100 μl TE buffer (10 mM Tris-HCl, 1 mM EDTA, pH 8) containing 1 mg/ml lysozyme. The samples were vortexed for 5 seconds, and then incubated at room temperature for 10 minutes with vortexing every 2 minutes. 1 ml TRIzol™ reagent was added to the sample. The sample was incubated at room temperature for 5 minutes, and then RNA extraction was performed as described hereinabove.
(§1) RNA was extracted from a sample, and after extraction, the RNA pellet was solubilized and hybridized with a specific fluorescently labeled DNA probe in a hybridization solution (as schematically depicted in FIG. 1). After hybridization, the hybridized sample was loaded into an MST capillary and inserted into a Monolith™ MST instrument (NanoTemper Technologies GmbH, Germany). This instrument included a blue mode (493 nm excitation, […]) and red mode ([…], 670 nm emission) for detection, and an I.R laser (1475 nm+/−15 nm) for heating. The intensities for both fluorescence detection (LED) and IR laser are adjustable, in a range of 0%-100%, wherein the temperature gradient generated has a temperature difference of up to about 2-8° C. Thermophoretic force was induced by infrared laser after 1 second, and maintained for 2 seconds, for a total of a 3 second measurement window (measurement time may optionally be further reduced to 2 seconds using current available MST instruments).
For RNA titration measurements, the extracted RNA solution was diluted to X2 and a serial dilution was prepared in water. Hybridization solutions were prepared as described herein, were X1 solution consisted of SSC buffer X1, 0.05% TWEEN™ 20 surfactant, and 1% formamide unless indicated otherwise. Fluorescently labeled probes were diluted from a 100 μM stock to 1:2400 in hybridization solution X2, denatured for 5 minutes at 100° C. and then incubated on ice for 5 minutes. If a mixture of uniformly labeled probes was prepared, the probes were diluted to a 1:1200 dilution in water and then diluted to 1:2400 with hybridization solution X4 (1:1/number of probes) to create equal molarity of the fluorescent dye. The probe solution was combined with the titration series in a 1:1 (v/v) ratio (10 μL total volume) and allowed to hybridize at a defined temperature for a given time as described. If post-hybridization with intercalating agents (ICA), doxorubicin or Midori™ Green, was performed, the samples were combined with ICA X5 solution 4:1 (v:v) ratio, 8 μL and 2 μL respectively. For cell based measurements, after extraction, the RNA pellet was solubilized and hybridized with a specific fluorescently labeled DNA probe in a hybridization solution (as schematically depicted in FIG. 1).
In order to determine the optimal hybridization temperature, one of the designed probes (16S1^Cy5) was incubated with increasing concentrations of bacterial RNA at different temperatures for 10 minutes. MST measurements were then performed using the red wavelength acquisition mode.
In order to assess the effect of human RNA presence and Dox post-hybridization on signal response, 16S1^Cy5 was incubated with increasing concentrations of bacterial or human total RNA at 71° C. for 2 hours. Equal amounts were then taken for post-hybridization incubation with Dox or hybridization buffer as a control. […]

18S rRNA (human) = experiment: MST of probe hybridized with human RNA extracted from HEK 293T cells
Description: as §1
For RNA titration measurements, the extracted RNA solution was diluted to X2 and a serial dilution was prepared in water. Hybridization solutions were prepared as described herein, were X1 solution consisted of SSC buffer X1, 0.05% TWEEN™ 20 surfactant, and 1% formamide unless indicated otherwise. Fluorescently labeled probes were diluted from a 100 μM stock to 1:2400 in hybridization solution X2, denatured for 5 minutes at 100° C. and then incubated on ice for 5 minutes. […]
As depicted in FIG. 3, fluorescent signals were quantified in the 1 second before application of a temperature gradient (Fcold) and between 1 and 2 seconds after application of the temperature gradient (Fhot). […]
As the probes are tagged with different florescent dyes, 18S^ATTO488 can be used as a control for the RNA extraction process. […] The signals of 18S^ATTO488 were measured using a blue wavelength acquisition mode and S^Cy5 using a red wavelength acquisition mode. […]

S-gene RNA (SARS-CoV2) = details: for direction of thermophoretic flux / dependence of thermophoretic signal on S-gene RNA concentration: in the presence of 100 μM Dox; for direction of thermophoretic flux: increasing S-gene; for ΔFnorm (signal response): FIG. 37; for dependence of thermophoretic/fluorescent signal on S-gene RNA concentration: no intercalating agent, red wavelength acquisition mode
HA gene (H1N1 influenza) = system: HA gene (H1N1 influenza)
S-HA gene = experiment: MST of probes with artificial S-HA gene RNA (target length effect)
control RNA = experiment: MST of probes incubated with control RNA (specificity); details: in the presence of 100 μM Dox; red mode

16S2^Cy5: Cy5-labeled 44 nucleotide DNA probe (SEQ ID NO: 10) complementary to E. coli 16S rRNA (DNA GCGGCCGTACTCCCCAGGCGGTCGACTTAACGCGTTAGCTCCGG; DNA, backbone not given here; Cy5 dye label)
direction of thermophoretic migration (MST curves) (16S rRNA (E. coli)): migrated towards the heating zone both in the presence of bacterial RNA

16S4^Cy5: Cy5-labeled 36 nucleotide DNA probe (SEQ ID NO: 12) complementary to E. coli 16S rRNA (DNA GGCAGTCTCCTTTGAGTTCCCGGCCGGACCGCTGGC; DNA, backbone not given here; Cy5 dye label)
direction of thermophoretic migration (MST curves) (16S rRNA (E. coli)): A similar effect was observed

16S7^Cy5: Cy5-labeled 45 nucleotide DNA probe (SEQ ID NO: 15) complementary to E. coli 16S rRNA (DNA CCCCCTCCATCAGGCAGTTTCCCAGACATTACTCACCCGTCCGCC; DNA, backbone not given here; Cy5 dye label)
direction of thermophoretic migration (MST curves) (16S rRNA (E. coli)): migrated towards the heating zone in the presence of increasing concentrations of bacterial RNA, but away from the heating zone in the absence of bacterial RNA | sensitivity to target RNA concentration (linear regression slope) (16S rRNA (E. coli); single probes, 10 minutes hybridization): significantly more sensitive to target RNA concentration than the other tested probes

18S^ATTO488: probe with SEQ ID NO: 6 tagged with blue fluorescent dye ATTO 488, targets human 18S rRNA (DNA AGGGGCTGACCGGGTTGGTTTTGATCTGATAAATGCACGCATCCCC; ATTO 488 label; misc_feature 1..46 ATTO488 labeled; DNA sequence complementary to nucleotides 205-250 of SEQ ID NO: 5)
selectivity of signal response to target RNA (18S rRNA (human); 100 ng/μl HEK 293T RNA vs 400 ng/μl S-gene, 400 ng/μl control RNA or no RNA, blue mode): selective signal responses to their target RNA | dependence of fluorescent signal on complementary RNA dose (18S rRNA (human); RNA extracted from HEK 293T cells, blue mode): dependent on the dose of complementary RNA | concomitant detection of 18S rRNA in human extracted RNA (18S rRNA (human); mixed with S^Cy5, hybridization at 42° C. for 30 minutes): effective and quantitative

HA^ATTO488: DNA having SEQ ID NO: 8 tagged with blue fluorescent dye ATTO 488, targets H1N1 HA-gene (DNA TGAAGCCGGCAATGGCCCCGAATAGGCCTCTAG; ATTO 488 label; misc_feature 1..33 DNA sequence complementary to nucleotides 567-599 of SEQ ID NO: 7 (nucleotides 1048-1080 of Influenza A H1N1 HA gene; ATTO488 labeled)
dependence of signal on S-gene concentration (off-target) (S-gene RNA (SARS-CoV2); SSC X1, 10% (v/v) formamide, blue mode): not on the concentration of S-gene or control RNA | effect of higher saline sodium citrate buffer concentration on detection sensitivity (HA gene (H1N1 influenza); SSC X1, X2, X4, blue mode): increased detection sensitivity | dependence of signal on HA-gene concentration (HA gene (H1N1 influenza); blue mode): dose-dependent signal; also recorded: dependent on the concentration of HA-gene

SE^Cy5: Cy5-tagged 22 nucleotide DNA probe (SEQ ID NO: 3) designed to bind at the edge of the S-gene (DNA CAATATCACCAAGGCAATCACC; DNA, backbone not given here; Cy5 dye label)
direction of thermophoretic flux (S-gene RNA (SARS-CoV2); red mode): directed away from the heating zone | ΔFnorm (signal response) (S-gene RNA (SARS-CoV2); no Dox): 54.41 ‰ | dependence of thermophoretic/fluorescent signal on S-gene RNA concentration (S-gene RNA (SARS-CoV2)): exhibited a thermophoretic signal dependent on S-gene RNA concentration | maximum signal response, S-gene vs S-HA gene (S-HA gene; red mode, FIG. 55): considerably stronger in the presence of S-gene than in the presence of S-HA

SN^Cy5: Cy5-tagged 22 nucleotide "non-binding" DNA probe (SEQ ID NO: 4), negative control (DNA CACCATTAGTGGGTTGGAAACC; DNA, backbone not given here; Cy5 dye label)
dependence of thermophoretic signal on S-gene RNA concentration (S-gene RNA (SARS-CoV2); red mode): not affected by RNA concentration | dependence of thermophoretic/fluorescent signal on S-gene RNA concentration (S-gene RNA (SARS-CoV2)): exhibits no change in MST signal; also recorded: no dependence; also recorded: did not generated dose-dependent signals

S^Cy5: 33 base DNA (SEQ ID NO: 2) tagged with red dye Cy5, binds the middle of SARS-CoV2 S-gene RNA (DNA GGATTGACTAGCTACACTACGTGCCCGCCGAGG; DNA, backbone not given here; Cy5 dye label)
effect of control RNA on probe signal (control RNA): no effect | average maximum ΔFnorm (S-gene RNA (SARS-CoV2)): 547.1 ‰ | selectivity of signal response to target RNA (S-gene RNA (SARS-CoV2)): selective signal responses to their target RNA | direction of thermophoretic flux (S-gene RNA (SARS-CoV2); red mode): towards the heating zone | dependence of thermophoretic signal on S-gene RNA concentration (S-gene RNA (SARS-CoV2); red mode): altered by S-gene RNA in a dose-dependent manner | Z′-factor (S-gene RNA (SARS-CoV2); maximum signal response with S-gene compared to no RNA control): 0.85 | concomitant detection of S-gene in presence of human extracted RNA (S-gene RNA (SARS-CoV2); mixed with 18S^ATTO488, hybridization at 42° C. for 30 minutes): effective and quantitative | ΔFnorm (signal response) (S-gene RNA (SARS-CoV2); no Dox): 110.63 ‰ | average maximum ΔFnorm (S-gene RNA (SARS-CoV2); no Dox, red mode): 116.5 ‰ | dependence of thermophoretic/fluorescent signal on S-gene RNA concentration (S-gene RNA (SARS-CoV2)): dependent on the dose of complementary RNA; also recorded: exhibited a thermophoretic signal dependent on S-gene RNA concentration | signal response to HA-gene (off-target) (HA gene (H1N1 influenza); red mode, data not shown): no response in signal was observed | sensitivity (slope at low RNA levels), S-HA-gene vs S-gene (S-HA gene): considerably greater sensitivity than towards S-gene | affinity towards S-HA gene compared with S-gene (S-HA gene; red mode, FIG. 55): higher affinity towards S-HA gene than to S-gene | maximum signal response, S-gene vs S-HA gene (S-HA gene; red mode, FIG. 55): did not differ
